In patent publication US20150133426A1, “SUBSTITUTED PYRROLOPYRIMIDINES” (BAYER PHARMA AKTIENGESELLSCHAFT, priority 2012, published 2015):

biological target: T1, human full-length MKNK1 (Homo sapiens, UniProt Q9BUB5, T385D); assay: MKNK1 kinase high ATP assay (TR-FRET); type: biochemical; conditions: high ATP (2 mM), 15 min preincubation with enzyme, GST-MKNK1 (T344D)
T1 construct: purchased Carna Biosciences 02-145; host or cells: insect cells, baculovirus expression system
How it was run: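 GST-tagged full-length human MKNK1 (aa 1-424, T344D), baculovirus-expressed, preincubated 15 min with compound, then reacted 30 min at 22 °C with 2 mM ATP and 0.06 µM biotinylated peptide (final).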

T1 sequence (Q9BUB5 1-424 isoform Q9BUB5-2 T344D): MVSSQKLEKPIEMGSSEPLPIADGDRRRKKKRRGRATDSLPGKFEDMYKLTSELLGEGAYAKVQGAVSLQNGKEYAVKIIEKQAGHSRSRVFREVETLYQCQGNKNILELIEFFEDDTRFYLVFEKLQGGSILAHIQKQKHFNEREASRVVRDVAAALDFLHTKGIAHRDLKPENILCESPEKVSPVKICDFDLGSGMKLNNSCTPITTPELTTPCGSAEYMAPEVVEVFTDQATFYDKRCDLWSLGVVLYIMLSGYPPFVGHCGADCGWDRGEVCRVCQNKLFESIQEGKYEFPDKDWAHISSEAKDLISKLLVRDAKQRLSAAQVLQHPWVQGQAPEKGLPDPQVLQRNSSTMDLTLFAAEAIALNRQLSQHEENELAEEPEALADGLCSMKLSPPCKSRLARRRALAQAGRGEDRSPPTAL

Row | IC50 [nM] | Compound
1 | 450 | O=C(NCc1ccccc1)C1CCc2[nH]c3ncnc(N4CCc5ccccc54)c3c2C1 (racemic) [Example 209, (RS)—N-Benzyl-4-(2,3-dihydro-1H-indol-1-yl)-6,7,8,9-tetrahydro-5H-pyrimido[4,5-b]indole-6-carboxamide]
2 | 503 | COCC1(OC)CCc2[nH]c3ncnc(Nc4cc(Cl)ccc4OC(C)C)c3c2C1 (racemic) [Example 132]
3 | 6 | COc1cc(Cl)c(Cl)cc1Nc1ncnc2[nH]c3c(c12)CC(C(=O)NC1CC1)CC3 (racemic) [Example 20, (RS)—N-Cyclopropyl-4-[(4,5-dichloro-2-methoxyphenyl)amino]-6,7,8,9-tetrahydro-5H-pyrimido[4,5-b]indole-6-carboxamide]
4 | 1100 | COc1ccc(F)cc1Nc1ncnc2[nH]c3c(c12)CC(C(=O)O)CC3 (racemic) [Example 181, (RS)-4-[(5-Fluoro-2-methoxyphenyl)amino]-6,7,8,9-tetrahydro-5H-pyrimido[4,5-b]indole-6-carboxylic acid]
5 | 59 | COc1ccc(F)cc1Nc1ncnc2[nH]c3c(c12)CC(C(=O)NCCCS(C)(=O)=O)CC3 (racemic) [Example 39, (RS)-4-[(5-Fluoro-2-methoxyphenyl)amino]-N-[3-(methylsulfonyl)propyl]-6,7,8,9-tetrahydro-5H-pyrimido[4,5-b]indole-6-carboxamide]
6 | 123 | COc1ccc(F)cc1Nc1ncnc2[nH]c3c(c12)CC(C(=O)NC(C)C)CC3 (racemic) [Example 195, (RS)-4-[(5-Fluoro-2-methoxyphenyl)amino]-N-(propan-2-yl)-6,7,8,9-tetrahydro-5H-pyrimido[4,5-b]indole-6-carboxamide]
7 | 494 | CC1(C)Cc2cccc(Nc3ncnc4[nH]c5c(c34)CC(C(=O)NCCCS(C)(=O)=O)CC5)c2O1 (racemic) [Example 80, (RS)-4-[(2,2-Dimethyl-2,3-dihydro-1-benzofuran-7-yl)amino]-N-[3-(methylsulfonyl)propyl]-6,7,8,9-tetrahydro-5H-pyrimido[4,5-b]indole-6-carboxamide]
8 | 258 | CC(C)Oc1cc(F)ccc1Nc1ncnc2[nH]c3c(c12)CCCCC3 [Example 4, N-(4-Fluoro-2-isopropoxyphenyl)-5,6,7,8,9,10-hexahydrocyclohepta[4,5]pyrrolo[2,3-d]pyrimidin-4-amine]
9 | 124 | Cc1ccc(Nc2ncnc3[nH]c4c(c23)CC(C(=O)NCCCS(C)(=O)=O)CC4)cc1S(=O)(=O)O (racemic) [Example 59, (RS)-2-Methyl-5-[(6-{[3-(methylsulfonyl)propyl]carbamoyl}-6,7,8,9-tetrahydro-5H-pyrimido[4,5-b]indol-4-yl)amino]benzenesulfonic acid]
10 | 6410 | Cc1nc2cc(Nc3ncnc4[nH]c5c(c34)CC(C(=O)NCCCS(C)(=O)=O)CC5)ccc2s1 (racemic) [Example 50, (RS)-4-[(2-Methyl-1,3-benzothiazol-5-yl)amino]-N-[3-(methylsulfonyl)propyl]-6,7,8,9-tetrahydro-5H-pyrimido[4,5-b]indole-6-carboxamide]
11 | 58 | O=c1[nH]c2ccc(Nc3ncnc4[nH]c5c(c34)CCCC5)cc2s1 [Example 117]
12 | 1550 | O=[N+]([O-])c1ccc2c(c1)CCN2c1ncnc2[nH]c3c(c12)CCCC3 [Example 123]
13 | 1130 | CS(=O)(=O)CCCNC(=O)C1CCc2[nH]c3ncnc(Sc4ccc5[nH]ncc5c4)c3c2C1 (racemic) [Example 146, (RS)-4-(1H-Indazol-5-ylsulfanyl)-N-[3-(methylsulfonyl)propyl]-6,7,8,9-tetrahydro-5H-pyrimido[4,5-b]indole-6-carboxamide]
14 | 215 | CCNC(=O)C1CCc2[nH]c3ncnc(Nc4ccccc4N4CCOCC4)c3c2C1 (racemic) [Example 201, (RS)—N-Ethyl-4-{[2-(morpholin-4-yl)phenyl]amino}-6,7,8,9-tetrahydro-5H-pyrimido[4,5-b]indole-6-carboxamide]
15 | 400 | COc1ccc(C(F)(F)F)cc1Nc1ncnc2[nH]c3c(c12)CC(C(=O)O)CC3 (racemic) [Example 103, (RS)-4-{[2-Methoxy-5-(trifluoromethyl)phenyl]amino}-6,7,8,9-tetrahydro-5H-pyrimido[4,5-b]indole-6-carboxylic acid]
16 | 12200 | O=c1[nH]c2ccc(Nc3ncnc4[nH]c5c(c34)CCCC5)cc2[nH]c1=O [Example 110]
17 | 37 | CCCOc1ccc(F)cc1Nc1ncnc2[nH]c3c(c12)CC(C(=O)NCCCS(C)(=O)=O)CC3 (racemic) [Example 160, (RS)-4-[(5-Fluoro-2-propoxyphenyl)amino]-N-[3-(methylsulfonyl)propyl]-6,7,8,9-tetrahydro-5H-pyrimido[4,5-b]indole-6-carboxamide]
18 | 174 | CCOC(=O)C1CCc2[nH]c3ncnc(Nc4ccc(F)cc4OCCO)c3c2C1 (racemic) [Example 176, (RS)-Ethyl 4-{[4-fluoro-2-(2-hydroxyethoxy)phenyl]amino}-6,7,8,9-tetrahydro-5H-pyrimido[4,5-b]indole-6-carboxylate]

Row | IC50 [nM] | Compound
19 | 3540 | O=C1OCCOc2cc(F)ccc2Nc2ncnc3[nH]c4c(c23)CC1CC4 (racemic) [Example 229, (RS)-11-Fluoro-1,3,4,7,8,14-hexahydro-5H-2,4-ethano-6,9-dioxa-1,14,15,17-tetraazabenzo[5,6]cyclotrideca[1,2,3-cd]inden-5-one]
20 | 406 | CC(C)Oc1cc(F)ccc1Nc1ncnc2[nH]c3c(c12)CC(C(=O)O)CC3 (racemic) [Example 183, (RS)-4-{[4-Fluoro-2-(propan-2-yloxy)phenyl]amino}-6,7,8,9-tetrahydro-5H-pyrimido[4,5-b]indole-6-carboxylic acid]
21 | 615 | COc1ccc(OC)c(Nc2ncnc3[nH]c4c(c23)CC(C(=O)NCCCS(C)(=O)=O)CC4)c1 (racemic) [Example 42, (RS)-4-[(2,5-Dimethoxyphenyl)amino]-N-[3-(methylsulfonyl)propyl]-6,7,8,9-tetrahydro-5H-pyrimido[4,5-b]indole-6-carboxamide]
22 | 407 | CC(C)Oc1ccc(Cl)cc1Nc1ncnc2[nH]c3c(c12)CC(F)(F)CC3 [Example 143]
23 | 359 | CCOC(=O)C1CCc2[nH]c3ncnc(Nc4cc(Cl)ccc4OC)c3c2C1 (racemic) [Example 175, (RS)-Ethyl 4-[(5-chloro-2-methoxyphenyl)amino]-6,7,8,9-tetrahydro-5H-pyrimido[4,5-b]indole-6-carboxylate]
24 | 904 | CS(=O)(=O)CCCNC(=O)C1CCc2[nH]c3ncnc(Nc4ccc5c(c4)CCS5(=O)=O)c3c2C1 (racemic) [Example 52, (RS)-4-[(1,1-Dioxido-2,3-dihydro-1-benzothiophen-5-yl)amino]-N-[3-(methylsulfonyl)propyl]-6,7,8,9-tetrahydro-5H-pyrimido[4,5-b]indole-6-carboxamide]
25 | ≥ 20000 | O=[N+]([O-])c1ccc2c(c1)N(c1ncnc3[nH]c4c(c13)CCCC4)CC2 [Example 121]
26 | 159 | COc1ccc(Cl)cc1Nc1ncnc2[nH]c3c(c12)CC(C(=O)O)CC3 (racemic) [Example 235, (RS)-4-[(5-Chloro-2-methoxyphenyl)amino]-6,7,8,9-tetrahydro-5H-pyrimido[4,5-b]indole-6-carboxylic acid]
27 | 3 | COc1cc2[nH]ncc2cc1Nc1ncnc2[nH]c3c(c12)CC(C(=O)NCc1cccc(C(F)(F)F)c1)CC3 (racemic) [Example 220, (RS)-4-[(6-Methoxy-1H-indazol-5-yl)amino]-N-[3-(trifluoromethyl)benzyl]-6,7,8,9-tetrahydro-5H-pyrimido[4,5-b]indole-6-carboxamide]
28 | 38 | O=c1[nH]c2ccc(Nc3ncnc4[nH]c5c(c34)CC(F)(F)CC5)cc2s1 [Example 142]
29 | 55 | O=c1[nH]c2cc(Cl)c(Nc3ncnc4[nH]c5c(c34)CCCC5)cc2s1 [Example 236, 5-Chloro-6-(6,7,8,9-tetrahydro-5H-pyrimido[4,5-b]indol-4-ylamino)-1,3-benzothiazol-2(3H)-one]
30 | 746 | CS(=O)(=O)CCCNC(=O)C1CCc2[nH]c3ncnc(Nc4ccccc4OC(F)(F)F)c3c2C1 (racemic) [Example 32, (RS)—N-[3-(Methylsulfonyl)propyl]-4-{[2-(trifluoromethoxy)phenyl]amino}-6,7,8,9-tetrahydro-5H-pyrimido[4,5-b]indole-6-carboxamide]
31 | 677 | CS(=O)(=O)CCCNC(=O)C1CCc2[nH]c3ncnc(Nc4cc(OC(F)(F)F)ccc4F)c3c2C1 (racemic) [Example 62, (RS)-4-{[2-Fluoro-5-(trifluoromethoxy)phenyl]amino}-N-[3-(methylsulfonyl)propyl]-6,7,8,9-tetrahydro-5H-pyrimido[4,5-b]indole-6-carboxamide]
32 | 10500 | CS(=O)(=O)CCCNC(=O)C1CCc2[nH]c3ncnc(Nc4ccc(F)c5[nH]c(=O)ccc45)c3c2C1 (racemic) [Example 82, (RS)-4-[(8-Fluoro-2-oxo-1,2-dihydroquinolin-5-yl)amino]-N-[3-(methylsulfonyl)propyl]-6,7,8,9-tetrahydro-5H-pyrimido[4,5-b]indole-6-carboxamide]
33 | 231 | CS(=O)(=O)CCCNC(=O)C1CCc2[nH]c3ncnc(Nc4ccc5ncsc5c4)c3c2C1 (racemic) [Example 49, (RS)-4-(1,3-Benzothiazol-6-ylamino)-N-[3-(methylsulfonyl)propyl]-6,7,8,9-tetrahydro-5H-pyrimido[4,5-b]indole-6-carboxamide]
34 | 24 | FC1(F)CCc2[nH]c3ncnc(Nc4ccc5[nH]ncc5c4)c3c2C1 [Example 10, 6,6-Difluoro-N-(1H-indazol-5-yl)-6,7,8,9-tetrahydro-5H-pyrimido[4,5-b]indol-4-amine]
35 | ≥ 20000 | Cc1ccc(Nc2ncnc3[nH]c4c(c23)CC(C(=O)NCCCS(C)(=O)=O)CC4)c(OC(F)F)c1 (racemic) [Example 156, (RS)-4-{[2-(Difluoromethoxy)-4-methylphenyl]amino}-N-[3-(methylsulfonyl)propyl]-6,7,8,9-tetrahydro-5H-pyrimido[4,5-b]indole-6-carboxamide]
